This passage reports IC50, Emax and EC50 results from patent US20120115845A1, “THERAPEUTIC AGENTS” (priority 2007, published 2012).

Assay [1] addresses T1, human GHS receptor (Homo sapiens, UniProt Q92847). Kind of assay: h bind IC50 (binding assay, Table 1). The settings on record: human receptor; Table 1.
Assay [2] addresses T1, human GHS receptor. Kind of assay: Ghrelin IP1 agonist assay (IP1 HTRF). It is filed as cell-based. Further details: expressed in transfected cells; host or cells: HEK293s. The note with it: for Emax: 2 h, agonist effect as % maximal effect of GHRP-6 (5 μM), read-out: h IP1 ag %; for pEC50: HEK293s cells stably expressing human GHS receptor, 2 hours at 37° C., read-out: h IP1 ag EC50. The procedure, abridged:
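Cells: HEK293s stably expressing human GHS receptor, in stimulation buffer containing 0.02% fatty acid free BSA.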
For orientation: Time-resolved FRET reads energy transfer from a long-lived donor to a nearby acceptor.

pEC50, pIC50: −log10 of the molar value.

T1 sequence (Q92847 whole entry): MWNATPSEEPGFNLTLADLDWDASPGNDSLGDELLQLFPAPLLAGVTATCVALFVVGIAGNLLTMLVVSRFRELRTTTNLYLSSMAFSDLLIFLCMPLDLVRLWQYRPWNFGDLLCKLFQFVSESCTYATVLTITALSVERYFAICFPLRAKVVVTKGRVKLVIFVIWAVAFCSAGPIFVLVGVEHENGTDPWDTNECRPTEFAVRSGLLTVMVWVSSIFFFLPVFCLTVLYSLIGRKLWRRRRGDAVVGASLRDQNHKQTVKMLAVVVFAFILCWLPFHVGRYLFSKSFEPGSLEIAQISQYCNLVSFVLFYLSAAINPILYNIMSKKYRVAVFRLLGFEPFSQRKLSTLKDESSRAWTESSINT

One may read the pIC50 as the IC50 on a negative log10 scale, so that one unit is a factor of ten. Lower therefore signals a high IC50. One may read the pEC50 as the EC50 on a negative log10 scale, so that one unit is a factor of ten. The compound `CC(C)N1CCC[C@@H]1CS(=O)(=O)c1ccc2nc(NC(=O)NC(=O)c3ccccc3Cl)sc2c1` [Example 168, 2-Chloro-N-[[6-[[(2R)-1-propan-2-ylpyrrolidin-2-yl]methylsulfonyl]benzothiazol-2-yl]carbamoyl]benzamide] gave a pIC50 in assay [1] of 7.69. Also, in assay [2], the Emax turned out to be 37% and the pEC50 is 8.38.
For `O=C(NC(=O)c1ccccc1Cl)Nc1nc2ccc(S(=O)(=O)CCN3CCC3)cc2s1` [Example 13, N-[[6-[2-(Azetidin-1-yl)ethylsulfonyl]benzothiazol-2-yl]carbamoyl]-2-chloro-benzamide] the same measures were 6.79, 52.5% and 7.26.
`O=C(NC(=O)c1ccccc1Cl)Nc1nc2ccc(S(=O)(=O)C3CCNC3)cc2s1` (stereo not drawn) [Example 44, 2-Chloro-N-[(6-pyrrolidin-3-ylsulfonylbenzothiazol-2-yl)carbamoyl]benzamide] had a pIC50 in assay [1] of 7.74. For the same compound, in assay [2], the Emax worked out at 49% and the pEC50 was 8.24.
On the same counts, the results for `CN1CCN(CCCS(=O)(=O)c2ccc3nc(NC(=O)NC(=O)c4cccc(-n5cccn5)c4Cl)sc3c2)CC1` [Example 240, 2-chloro-N-(6-(3-(4-methylpiperazin-1-yl)propylsulfonyl)benzo[d]thiazol-2-ylcarbamoyl)-3-(1H-pyrazol-1-yl)benzamide] are 8.05, 80.9% and 7.55.
Consider `CS(=O)(=O)c1ccc2nc(NC(=O)NC(=O)c3cc(C(F)(F)F)ccc3Cl)sc2c1` [Example 181, 2-Chloro-N-[(6-methylsulfonylbenzothiazol-2-yl)carbamoyl]-5-(trifluoromethyl)benzamide], for which the pIC50 in assay [1] was 7.31. In assay [2], the Emax was 54.4% and the negative-log EC50 (pEC50) is 9.20.
As to `O=C(NC(=O)c1ccccc1Cl)Nc1nc2ccc(S(=O)(=O)NCCO)cc2s1` [Example 231, 2-chloro-N-[[6-(2-hydroxyethyl-sulfamoyl)-1,3-benzothiazol-2-yl]carbamoyl] benzamide], the pIC50 in assay [1] is 7.17. For the same compound, in assay [2], the Emax came out at 15.7% and the pEC50 is 7.14.
The compound `CS(=O)(=O)c1ccc2nc(NC(=O)NC(=O)c3cc(OC4CCNC4)ccc3Cl)sc2c1` (stereo not drawn) [Example 249, 2-chloro-N-(6-(methylsulfonyl)benzo[d]thiazol-2-ylcarbamoyl) 5-(pyrrolidin-3-yloxy)benzamide] had a negative logarithm of the IC50 (pIC50) in assay [1] of 5.09. In assay [2], the Emax came out at 3.13% and the pEC50 is 5.31.
The compound `CN1CCCN(CCCS(=O)(=O)c2ccc3nc(NC(=O)NC(=O)c4cc(I)ccc4Cl)sc3c2)CC1` [Example 238, 2-chloro-5-iodo-N-(6-(3-(4-methyl-1,4-diazepan-1-yl)propylsulfonyl)benzo[d]thiazol-2-ylcarbamoyl) benzamide] had a pIC50 in assay [1] of 9.33. For the same compound, in assay [2], the Emax amounted to 9.98% and the pEC50 is 7.36.
On the same counts, the results for `CN1CC(Oc2ccc(Cl)c(C(=O)NC(=O)Nc3nc4ccc(S(C)(=O)=O)cc4s3)c2)C1` [Example 257, 2-chloro-5-(1-methylazetidin-3-yloxy)-N-(6-(methylsulfonyl)benzo[d]thiazol-2-ylcarbamoyl) benzamide] are 6.07, 13.1% and no more than 4.70.
As for `CS(=O)(=O)c1ccc2nc(NC(=O)NC(=O)c3cc(F)c(F)cc3Cl)sc2c1` [Example 177, 2-Chloro-4,5-difluoro-N-[(6-methylsulfonylbenzothiazol-2-yl)carbamoyl]benzamide], in assay [1], the pIC50 was 6.61. Also, in assay [2], the Emax turned out to be 22.8% and the pEC50 was 7.18.
Regarding `CN1CCC(S(=O)(=O)c2ccc3nc(NC(=O)NC(=O)c4cc(-n5cccn5)c(F)cc4Cl)sc3c2)CC1` [Example 254, 2-chloro-4-fluoro-N-(6-(1-methylpiperidin-4-ylsulfonyl)benzo [d]thiazol-2-ylcarbamoyl)-5-(1H-pyrazol-1-yl)benzamide], the pIC50 in assay [1] is 8.24. In assay [2], the Emax came to 0% and the pEC50 is no more than 4.70.
`CC(C)NS(=O)(=O)c1ccc2nc(NC(=O)NC(=O)c3ccccc3Cl)sc2c1` [Example 224, 2-chloro-N-[[6-(isopropylsulfamoyl)-1,3-benzothiazol-2-yl]carbamoyl]benzamide]: in assay [1], the pIC50 is 7.06. In addition, in assay [2], the Emax worked out at 24.3% and the negative logarithm of the EC50 (pEC50) was 6.86.
For `CCSc1ccccc1C(=O)NC(=O)Nc1nc2ccc(S(C)(=O)=O)cc2s1` [Example 130, 2-Ethylsulfanyl-N-[(6-methylsulfonylbenzothiazol-2-yl)carbamoyl]benzamide] the same measures were 6.54, 31.1% and 6.18.
On the same counts, the results for `CS(=O)(=O)c1ccc2nc(NC(=O)NC(=O)c3ccc(N4CCCC4)cc3Cl)sc2c1` [Example 117, 2-Chloro-N-[(6-methylsulfonylbenzothiazol-2-yl)carbamoyl]-4-pyrrolidin-1-yl-benzamide] are 7.42, 16.8% and 7.80.
On the same counts, the results for `CN(C)Cc1ccc(Cl)c(C(=O)NC(=O)Nc2nc3ccc(S(C)(=O)=O)cc3s2)c1` [Example 266, 2-chloro-5-((dimethylamino)methyl)-N-(6-(methylsulfonyl)benzo[d]thiazol-2-ylcarbamoyl) benzamide] are 5.31, 6% and no more than 4.70.
`NS(=O)(=O)c1ccc2nc(NC(=O)NC(=O)c3ccccc3Cl)sc2c1` [Example 229, 2-chloro-N-[(6-sulfamoyl-1,3-benzothiazol-2-yl)carbamoyl] benzamide] had a pIC50 in assay [1] of 5.71. Further, in assay [2], the Emax was 18.2% and the pEC50 is 6.93.
The compound `CN(C)C1CCCN(c2ccc(Cl)c(C(=O)NC(=O)Nc3nc4ccc(S(C)(=O)=O)cc4s3)c2)C1` (stereo not drawn) [Example 268, 2-Chloro-5-(3-dimethylamino-1-piperidyl)-N-[(6-methylsulfonyl-1,3-benzothiazol-2-yl)carbamoyl]benzamide] had a pIC50 in assay [1] of 6.02. For the same compound, in assay [2], the Emax was 11.3% and the pEC50 was 5.14.
In assay [1], `CCN(CC)C1CCN(c2ccc(Cl)c(C(=O)NC(=O)Nc3nc4ccc(S(C)(=O)=O)cc4s3)c2)C1` (stereo not drawn) [Example 239, 2-chloro-5-(3-(diethylamino)pyrrolidin-1-yl)-N-(6-(methylsulfonyl)benzo[d]thiazol-2-ylcarbamoyl) benzamide] gave a pIC50 of 6.82. Further, in assay [2], the Emax came out at 0% and the pEC50 was no more than 4.70.
In the case of `Cc1ccnn1-c1ccc(Cl)c(C(=O)NC(=O)Nc2nc3ccc(S(=O)(=O)CCCN4CCN(C)CC4)cc3s2)c1` [Example 90, 2-Chloro-5-(5-methyl-1H-pyrazol-1-yl)-N-(6-(3-(4-methylpiperazin-1-yl)propylsulfonyl)benzothiazol-2-ylcarbamoyl)benzamide], the pIC50 in assay [1] was 9.15. For the same compound, in assay [2], the Emax is 0% and the pEC50 is less than 4.60.
In turn, `CC(C)(C)OC(=O)NC1CC(S(=O)(=O)c2ccc3nc(NC(=O)NC(=O)c4ccccc4Cl)sc3c2)C1` (stereo not drawn) [Example 213, tert-Butyl N-[3-[2-[(2-chlorobenzoyl)carbamoylamino]benzothiazol-6-yl]sulfonylcyclobutyl]carbamate] showed a pIC50 in assay [1] of 6.62. Also, in assay [2], the Emax amounted to 12.9% and the pEC50 is 7.90.
In turn, `CCN(CC)CCCS(=O)(=O)c1ccc2nc(NC(=O)NC(=O)c3ccccc3Cl)sc2c1` [Example 153, 2-Chloro-N-[[6-(3-diethylaminopropylsulfonyl)benzothiazol-2-yl]carbamoyl]benzamide] had a pIC50 in assay [1] of 7.90. Also, in assay [2], the Emax was found to be 47% and the pEC50 was 7.96.
On to `CS(=O)(=O)c1ccc2nc(NC(=O)NC(=O)c3ccccc3Cl)sc2c1` [Example 102, 2-Chloro-N-[(6-methylsulfonylbenzothiazol-2-yl)carbamoyl]benzamide], for which the pIC50 in assay [1] is 6.93. In assay [2], the Emax worked out at 24.2% and the pEC50 was 7.24.
For `Cc1ccn(-c2ccc(C(=O)NC(=O)Nc3nc4ccc(S(=O)(=O)CCCN5CCN(C)CC5)cc4s3)c(Cl)c2)n1` [Example 212, 2-Chloro-N-[[6-[3-(4-methylpiperazin-1-yl)propylsulfonyl]benzothiazol-2-yl]carbamoyl]-4-(3-methylpyrazol-1-yl)benzamide] the same measures were 9.30, 27.6% and 8.69.
On to `O=C(NC(=O)c1ccccc1Cl)Nc1nc2ccc(S(=O)(=O)CCCNCC3CC3)cc2s1` [Example 151, 2-Chloro-N-[[6-[3-(cyclopropylmethylamino)propylsulfonyl]benzothiazol-2-yl]carbamoyl]benzamide], for which, in assay [1], the pIC50 was 7.97. In assay [2], the Emax is 74.3% and the pEC50 was 8.65.
`COCC1CCCN1CCS(=O)(=O)c1ccc2nc(NC(=O)NC(=O)c3ccccc3Cl)sc2c1` (stereo not drawn) [Example 36, 2-Chloro-N-[[6-[2-[2-(methoxymethyl)pyrrolidin-1-yl]ethylsulfonyl]benzothiazol-2-yl]carbamoyl]benzamide]: the pIC50 in assay [1] was 6.52. For the same compound, in assay [2], the Emax was found to be 34.3% and the pEC50 was 8.02.
On the same counts, the results for `O=C(NC(=O)c1ccccc1Cl)Nc1nc2ccc(S(=O)(=O)CCCN3CCCCC3)cc2s1` [Example 152, 2-Chloro-N-[[6-[3-(1-piperidyl)propylsulfonyl]benzothiazol-2-yl]carbamoyl]benzamide] are 7.72, 46.6% and 7.62.
For `CCN(CC)CCCCS(=O)(=O)c1ccc2nc(NC(=O)NC(=O)c3ccccc3Cl)sc2c1` [Example 211, 2-Chloro-N-[[6-(4-diethylaminobutylsulfonyl)benzothiazol-2-yl]carbamoyl]benzamide] the same measures were 7.27, 27.7% and 8.02.
